Test [1] deals with tetrabenazine-induced depression. As to the kind of experiment: Tetrabenazine Induced Depression (exploratory behaviour). It is filed as in vivo. Conditions: Mus musculus, ip, read-out: % Mice Protected. On the procedure:
The compounds of this invention are useful as antidepressant agents in warm-blooded animals as verified by the following test. The antidepressant properties of these compounds were tested by measuring their ability to counteract depression induced in animals by the administration of tetrabenazine methanesulfonate. Each test compound was administered orally (P.O.) or intraperitoneally (I.P.) to 10 mice at a dose of 25 mg/kg of body weight. Thirty minutes later, tetrabenazine methanesulfonate was administered intraperitoneally to each mouse at a dose of 39 mg/kg of body weight, which dose is known to depress markedly the exploratory behaviour of normal mice. Thirty minutes later the mice were tested for their exploratory behaviour as described by E. Greenblatt and A. C. Osterberg, Toxicology and Applied Pharmacology, 7, 566-578 (1965).

The test system of test [2] is tetrabenazine-induced ptosis. The test can be described thus: Tetrabenazine Induced Ptosis (inhibition of ptosis). Particulars: Mus musculus, ip, read-out: % Mice Responding. The class given is in vivo. The method, then: The antidepressant activity of the compounds of this invention was further established in the following test. Inhibition of tetrabenazine-induced ptosis is observed concomitantly with the inhibition of tetrabenazine-induced depression. Ptosis is defined as more than 75% closure of palpebral aperture induced in animals by the administration of tetrabenazine methanesulfonate. The compounds were administered orally (P.O.) or intraperitoneally (I.P.) at 25 mg/kg to groups of 10 mice. Thirty minutes later, tetrabenazine methanesulfonate was administered intraperitoneally to each mouse at a dose of 39 mg/kg. Thirty minutes after the injection of tetrabenazine, the mice were placed on an observation disc and examined for 10 seconds for inhibition of ptosis. […]

In test [3] the target is T1, [^3 H]-imipramine binding to human platelet membranes (Homo sapiens, UniProt P31645).
T1 construct: from tissue; host or cells: human platelets (sonicated, washed membranes)
T1 sequence (P31645 whole entry): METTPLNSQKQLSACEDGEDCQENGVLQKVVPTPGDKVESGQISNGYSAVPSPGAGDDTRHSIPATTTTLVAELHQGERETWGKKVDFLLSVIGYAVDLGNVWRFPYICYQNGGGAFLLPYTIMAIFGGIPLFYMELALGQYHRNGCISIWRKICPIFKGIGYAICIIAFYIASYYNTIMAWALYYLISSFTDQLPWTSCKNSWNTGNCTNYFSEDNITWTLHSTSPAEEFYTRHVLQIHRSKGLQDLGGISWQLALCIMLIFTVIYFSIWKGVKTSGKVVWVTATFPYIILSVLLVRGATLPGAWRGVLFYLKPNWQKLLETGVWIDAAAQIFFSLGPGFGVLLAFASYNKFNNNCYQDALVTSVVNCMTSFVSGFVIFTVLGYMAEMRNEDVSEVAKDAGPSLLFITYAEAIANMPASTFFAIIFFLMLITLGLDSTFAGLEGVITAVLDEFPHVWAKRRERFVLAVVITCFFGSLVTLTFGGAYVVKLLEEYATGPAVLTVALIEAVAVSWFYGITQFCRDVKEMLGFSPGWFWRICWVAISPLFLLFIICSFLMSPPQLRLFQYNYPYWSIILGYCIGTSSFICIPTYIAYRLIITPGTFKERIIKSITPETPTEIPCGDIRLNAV
As to the kind of experiment: Platelet Imipramine Binding: inhibition of [^3 H]-imipramine binding to human platelet membranes. Particulars: 50 μl of 50 μM compound stock + 200 μl membrane/[^3 H]imipramine mixture; 60 minutes at 0° C.; 10 μM desmethylimipramine = 0% binding. The method, then:
The activity of the compounds of this invention as antidepressant agents was further verified in the following test which measures the ability of a test compound to inhibit [^3 H]-imipramine binding to human platelet membranes.
Human platelet concentrates were diluted 1:20 with antiprotease containing buffer of the following composition:
0.005N potassium chloride
3 mN ethylenediaminetetraacetic acid
1 mN ethyleneglycol-bis-(β-aminoethyl ether)-N,N'-tetraacetic acid
This buffer was kept at pH 6.8 to prevent platelet release and aggregation.
The diluted platelets were centrifuged at 2500 g and then resuspended in 50 volumes of the same buffer. The cells were then ruptured with a Branson sonicator while the suspension was maintained in an ice bath. The ruptured cells were then centrifuged at 18,000 g, resuspended in fresh buffer and recentrifuged at 18,000 g. These membranes were diluted with the above antiprotease buffer which had been adjusted to pH 7.4 and to a concentration of 3.0 mg/ml.
The test compounds were dissolved in dimethylsulfoxide at a concentration of 50 mM and then diluted 1:10 in either water, 0.1M hydrochloric acid or 0.1M sodium hydroxide. They were then diluted 1:100 in buffer to 50 μM, and 50 μl of this stock solution was placed in triplicate test tubes. The tubes were cooled to 0° C. and 200 μl of the following mixture were added:
100 μl of 3 mg/ml membrane in buffer
50 μl of 15 nM[^3 H]imipramine in buffer
The tubes were incubated for 60 minutes at 0° C. Controls contain either buffer alone (100%) of 10 μM of final desmethylimipramine (DMI) (0%).
The samples were diluted with 5 ml of buffer [0.12M-sodium chloride, 0.05M-tris buffer, 0.005M-potassium chloride (pH 7.4)], vacuum filtered and washed twice with 5 ml of buffer. Radioactivity was measured in a liquid scintillation counter and the degree of binding was calculated.

In test [4] the test system is stress induced depressed ("coping") behavior. The test can be described thus: Stress Induced Depressed Behavior Test. It is filed as in vivo. Particulars: rats, intraperitoneally at 5-20 mg/kg; warm (44.5° C.) surface for 15 minutes; high ratio = active. The method, then:
The compounds of this invention are active as antistress agents in warm-blooded animals as evidenced by their results when tested in the Stress Induced Depressed Behavior Test. In this test, rats were confined on a warm (44.5° C.), but aversive, surface for 15 minutes. After 5-6 minutes, control rats began to show episodes of depressed ("coping") behavior where they remained flat and immobile for short to long periods of time. The onset and total duration of this behavior was timed. A ratio of onset/duration was calculated. The test compounds were administered intraperitoneally at 5-20 mg/kg of body weight. Active compounds prolong the time of onset and shorten the duration time resulting in high ratios.

Structures can show the parent of a compound that is named as a salt.

For the molecule `CN1C[C@@H]2[C@@H]3CC[C@@H](C3)[C@]2(c2ccc(Cl)c(Cl)c2)C1` (relative stereo) [3a-(3,4-Dichlorophenyl)octahydro-2-methyl-4,7-methano-1H-isoindole hydrochloride], the responders at 25 mg/kg in test [1] was 60%; in test [2], 100%. For the same molecule, in test [3], the inhibition at 10 µM stood at 93%. Further, in test [4], the Ratio onset/duration came out at 59.

(Values after US4529736A, “3a-(substituted phenyl)-2,3,3a,4,7,7a-hexahydro[or 3a-(substituted-phenyl)octahydro]-4,7-alkano-1H-isoindoles for treating depression in warm-blooded animals” (American Cyanamid Company, priority 1983, dated 1985).)
